One data set relates to CRC and MM. To be noted: cited from earlier work.
The conditions of data set [1]: cited from earlier work.
Data set [2] concerns β-catenin/TCF interaction. To be noted: cited from earlier work.
Another data set has as its target T1, GST-β-catenin (human, UniProt P35222 1-781).
T1 sequence (looked up): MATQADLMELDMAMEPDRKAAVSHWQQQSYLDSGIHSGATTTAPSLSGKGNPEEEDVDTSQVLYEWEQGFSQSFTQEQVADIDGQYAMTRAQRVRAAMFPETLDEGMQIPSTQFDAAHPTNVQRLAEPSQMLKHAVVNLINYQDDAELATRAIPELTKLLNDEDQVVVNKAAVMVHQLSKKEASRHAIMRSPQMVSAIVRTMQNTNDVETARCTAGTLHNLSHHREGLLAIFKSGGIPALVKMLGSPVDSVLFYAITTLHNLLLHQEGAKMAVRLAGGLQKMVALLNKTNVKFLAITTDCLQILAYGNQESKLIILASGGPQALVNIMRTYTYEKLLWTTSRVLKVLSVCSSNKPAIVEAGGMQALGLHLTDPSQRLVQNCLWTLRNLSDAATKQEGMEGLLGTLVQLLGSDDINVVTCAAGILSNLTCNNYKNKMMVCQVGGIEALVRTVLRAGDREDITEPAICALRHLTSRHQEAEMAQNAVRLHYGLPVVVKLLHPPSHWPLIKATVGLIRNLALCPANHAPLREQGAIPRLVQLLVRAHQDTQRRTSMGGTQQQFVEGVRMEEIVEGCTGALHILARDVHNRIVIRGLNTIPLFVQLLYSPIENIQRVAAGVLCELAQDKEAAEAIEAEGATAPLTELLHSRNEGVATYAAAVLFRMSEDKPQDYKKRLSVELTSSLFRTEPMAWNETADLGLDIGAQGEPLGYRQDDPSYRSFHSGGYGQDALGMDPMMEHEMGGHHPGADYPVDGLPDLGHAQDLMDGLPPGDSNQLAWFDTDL
Put plainly: pull-down.

The values below come from publication PMC3631420 (Science translational medicine, 2012).

On to PKF115-584, for which the “growth of CRC and MM” value in the data set with CRC and MM is recorded as “reduced the growth”. Besides, in data set [1], the “toxicity in treated mice” value was “induced severe bone marrow hypoplasia, anemia, and generalized wasting”. In addition, in data set [2], the Wnt-specific transcriptional activity result is listed as “blocked Wnt-specific transcriptional activity”.

B1: His-BCL9 (residues 243–469) (domain or fragment, human, UniProt O00512 243-469, looked up)
chain: NQDQNSSQNTRLQPTPPIPAPAPKPAAPPRPLDRESPGVENKLIPSVGSPASSTPLPPDGTGPNSTPNNRAVTPVSQGSNSSSADPKAPPPPPVSSGEPPTLGENPDGLSQEQLEHRERSLQTLRDIQRMLFPDEKEFTGAQSGGPQQNPGVLDGPQKKPEGPIQAMMAQSQSLGKGPGPRTDVGAPFGPQGHRDVPFSPDEMVPPSMNSQSGTIGPDHLDHMTPEQ
For B1, in the data set with GST-β-catenin, the binding result was “binds”.
